Assay results from PubChem BioAssay AID1845195 (Molecular Pharmacology Branch, DTP, NCI, 2023).

System: 156681-154-R-J1 tumor spheroid viability
Test: Anticancer human tumor 156681-154-R-J1 patient-derived melanoma cell line growth inhibition
Conditions: spheroids with HUVEC and MSC; for IC50: curve of first compound; for viability, T/C: stronger effect = lower value
Excerpt: Multicellular complex tumor spheroid response to DNA repair inhibitors in combination with DNA-damaging drugs
This study explores the anticancer activities of DNA-damaging drugs and inhibitors of DNA damage repair, both as single agents and in combinations. Complex tumor spheroids comprised of malignant cells, endothelial cells and mesenchymal stem cells served as an in vitro model for human solid tumors. This model system incorporates physiologically relevant features and patient-derived or established malignant cell lines with clinically relevant genetic alterations from many tumor types. Twenty-six patient-derived or established malignant cell lines were evaluated representing sarcoma, melanoma, small cell lung cancer (SCLC), non-small cell lung cancer (NSCLC), as well as bladder, ovarian and pancreatic cancers. The concentration ranges selected for each drug and investigational agent were based upon clinically achievable concentrations if the clinical Cmax of the agent was known.
Compounds. The drugs and compounds olaparib (NSC753686), talazoparib (NSC767125), berzosertib (NSC777718), elimusertib (NSC800525), nedisertib (NSC802822), VX-984 (NSC792969), AZD-1390 (NSC803789), temozolomide (NSC362856), topotecan (NSC609699), trabectedin (NSC813783), staurosporine (NSC755774), and gemcitabine (NSC613327) were obtained from the National Cancer Institute (NCI) Developmental Therapeutics Program Chemical Repository. The FDA-approved anticancer drug set is available from the Developmental Therapeutics Program at https://dtp.cancer.gov/organization/dscb/obtaining/available_plates.htm. […] The stock solutions were prepared in dimethyl sulfoxide (DMSO, Sigma-Aldrich, St. Louis, MO, cat. D2650) at 400-fold the tested concentration and stored at -70 degrees C. Prior to their use, the stock solutions were diluted in fresh medium and the final DMSO concentration in the assay was 0.25% (v/v). All drugs and investigational agents were tested over a range starting from a high concentration at or near the clinical Cmax and decreasing in half-log increments. If the clinical Cmax for an agent had not been determined, the highest concentration tested was 10 microM.
Cell Lines. The patient-derived cancer cell (PDC) lines: 156681-154-R-J1-PDC, 283228-195-R-J1-PDC, 287954-098-R-J1-PDC, 292921-168-R-J2-PDC, 349418-098-R-PDC, 425362-245-T-J1-PDC, 556581-035-R-J1-PDC, and BL0293-F563-PDC were received from the NCI Patient-Derived Models Repository (PDMR, https://pdmr.cancer.gov). The established cell lines HS-SY-2 (RRID:CVCL_8719), MPNST, and SYO-1 (RRID:CVCL_7146) were obtained from the Sloan Kettering Institute. The alveolar soft parts sarcoma cell line ASPS-1 (RRID:CVCL_S738) was established at the NCI and grown from internal seed stocks. The following established cell lines were purchased from the American Type Culture Collection (ATCC, Manassas, VA): G-401 (ATCC, cat. CRL-1441, RRID:CVCL_0270), SW982 (ATCC, cat. HTB-93, RRID:CVCL_1734), VA-ES-BJ (ATCC, cat. CRL-2138, RRID:CVCL_1785), NCI-H719 (ATCC, cat. CRL-5837, RRID:CVCL_1582), NCI-H196 (ATCC, cat. CRL-5823, RRID:CVCL_1509), NCI-H841 (ATCC, cat. CRL-5845, RRID:CVCL_1595), NCI-H1618 (ATCC, cat. CRL-5879, RRID:CVCL_1480), NCI-H1876 (ATCC, cat. CRL-5902, RRID:CVCL_1503), DMS 114 (ATCC, cat. CRL-2066; RRID:CVCL_1174), NCI-H211 (ATCC, cat. CRL-5824; RRID:CVCL_1529), and SW 1271 (ATCC, cat. CRL-2177, RRID:CVCL_1716). The small cell lung cancer cell line COR-L88 was purchased from Sigma-Aldrich (cat. 92031917-1VL, RRID:CVCL_1141). The non-small cell lung cancer cell lines NCI-H226 (RRID:CVCL_1544) and NCI-H322M (RRID:CVCL_1557) were established at the NCI and grown from internal seed stocks. Pooled donor human umbilical vein endothelial cells (HUVEC, Lonza, cat. CC-2519) and human mesenchymal stem cells (hMSC, Lonza, cat. PT-2501) were purchased from Lonza (Walkersville, MD).
Cell Culture. All cells were maintained in an incubator at 37 degrees C and 5% CO2 with 95% humidity. […]
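Also: spheroids exposed to compounds for 7 days before readout.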
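For viability, T/C in this document: percent of vehicle control viability where 100% = DMSO-treated spheroids.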

Compound: CC1COCCN1c1cc(-c2ccnn2C)c2ccnc(-c3ccn[nH]3)c2n1 (stereo not given) + Cn1nnc2c(C(N)=O)ncn2c1=O
- IC50 (second compound 1 µM): 90.7 nM
- IC50 (second compound 3.16 µM): 89.8 nM
- IC50 (second compound 10 µM): 44.3 nM
- IC50 (second compound 31.6 µM): < 31.6 nM
- IC50 (second compound 100 µM): < 31.6 nM
- viability, T/C (second compound 1 µM, first compound 0.0316 µM): 66.7%
- viability, T/C (second compound 1 µM, first compound 0.1 µM): 48.5%
- viability, T/C (second compound 1 µM, first compound 0.316 µM): 32.1%
- viability, T/C (second compound 1 µM, first compound 1 µM): 24.1%
- viability, T/C (second compound 1 µM, first compound 3.16 µM): 22.5%
- viability, T/C (second compound 1 µM, first compound 10 µM): 20.2%
- viability, T/C (second compound 3.16 µM, first compound 0.0316 µM): 73.5%
- viability, T/C (second compound 3.16 µM, first compound 0.1 µM): 47.7%
- viability, T/C (second compound 3.16 µM, first compound 0.316 µM): 26.1%
- viability, T/C (second compound 3.16 µM, first compound 1 µM): 21.3%
- viability, T/C (second compound 3.16 µM, first compound 3.16 µM): 20.2%
- viability, T/C (second compound 3.16 µM, first compound 10 µM): 18%
- viability, T/C (second compound 10 µM, first compound 0.0316 µM): 54.4%
- viability, T/C (second compound 10 µM, first compound 0.1 µM): 39.3%
- viability, T/C (second compound 10 µM, first compound 0.316 µM): 23.2%
- viability, T/C (second compound 10 µM, first compound 1 µM): 19.2%
- viability, T/C (second compound 10 µM, first compound 3.16 µM): 21.9%
- viability, T/C (second compound 10 µM, first compound 10 µM): 15.6%
- viability, T/C (second compound 31.6 µM, first compound 0.0316 µM): 38%
- viability, T/C (second compound 31.6 µM, first compound 0.1 µM): 31.4%
- viability, T/C (second compound 31.6 µM, first compound 0.316 µM): 18.6%
- viability, T/C (second compound 31.6 µM, first compound 1 µM): 20.2%
- viability, T/C (second compound 31.6 µM, first compound 3.16 µM): 21.8%
- viability, T/C (second compound 31.6 µM, first compound 10 µM): 16.2%
- viability, T/C (second compound 100 µM, first compound 0.0316 µM): 23.6%
- viability, T/C (second compound 100 µM, first compound 0.1 µM): 17.1%
- viability, T/C (second compound 100 µM, first compound 0.316 µM): 12.6%
- viability, T/C (second compound 100 µM, first compound 1 µM): 15.3%
- viability, T/C (second compound 100 µM, first compound 3.16 µM): 16%
- viability, T/C (second compound 100 µM, first compound 10 µM): 17%
